Measurements published in patent US20120302616A1, “METHOD OF TREATMENT OF OBSESSIVE COMPULSIVE DISORDER WITH ONDANSETRON” (priority 2010, published 2012).
“And” between values parts separate entries of the source, which are not always exact repeats. Identical values can stand only once.

What was measured:
[1] = tested on: patients with treatment-resistant OCD; assay: Side effects and vital signs in the SRI plus antipsychotic augmentation study; type: in vivo, human
Protocol: The Y-BOCS, Montgomery-Asberg Depression Rating Scale (MADRS) (see Montgomery, S. A., BR J PSYCHIATRY 1979; 134:382-389) was administered at screening and baseline, and these assessments were repeated at every follow-up visit at 2-week intervals, along with the Clinical Global Impressions-Improvement (CGI-I) rating (see Guy, W. ECDEU Assessment Manual for Psychopharmacology. US Dept Health, Education, and Welfare publication (ADM) 76-338. Rockville, Md.: National Institute of Mental Health; 1976:218-222) and an unpublished Drug Effect scale. The Drug Effect scale asked subjects to rate “How anxious are you now?” on a scale of zero (not at all) to 10 (“the most anxious I have ever been”). Similar rating questions have been “Do you experience appearance or increment in frequency of headaches?”, “Do you experience appearance or increment in frequency of headaches fatigue?” and “Do you experience appearance or increment in frequency of headaches constipation” and so on regarding other common ondansetron side effects (diarrhea, urinary retention, itching, and dizziness). Furthermore, each evening during the first week of study medication, a study psychiatrist called the subject to ask for major or unexpected collateral effects (as chest pain, an unexplained skin rash, or tremors.). […] (See Mittmann, N. et al., AM J PSYCHIATRY 1997; 154:320-321) Subjects with MADRS scores ≧18 were excluded. Ratings were administered by an investigator who was blind to the treatment condition of the patients.
One patient reported a mild increase in anxiety levels, which lasted only one night. No change in mean pulse rate or mean blood pressure was observed. […] The daily dose of 1 mg/day divided in twice daily administration, approximately 5% of the minimum dose recommended for emesis and nausea treatment was reached after 6 weeks and maintained until the 12th week.

[2] = tested on: patients with treatment-resistant OCD; assay: Ondansetron augmentation of SRI therapy, single-blind 12-week study with 4-week discontinuation follow-up (YBOCS, CGI); type: in vivo, human; design: reduction in CGI-I from baseline: concentration or dose not given beside the values; conditions: for CGI-I Score / YBOCS % Reduction / YBOCS Score: individual patients (21); for Compulsion Subdomain YBOCS % Reduction / Obsession Subdomain YBOCS % Reduction / Compulsion Subdomain YBOCS Score / Obsession Subdomain YBOCS Score: individual patients
Protocol: Twenty-one patients with a DSM-IV diagnosis of treatment-resistant OCD, under stable treatment with SRIs approved by the FDA for OCD therapy, received 12 weeks of single-blind ondansetron augmentation initiated at a dose of 0.25 mg twice daily for 2 weeks, and titrated to 0.5 mg twice daily for 10 weeks. Patients were rated every two weeks using the Yale Brown Obsessive Compulsive Scale (YBOCS) and Clinical Global Impressions Scale (CGI). Treatment-resistant patients were defined as having completed an adequate trial of SRIs at a moderate to high dose for at least 12 weeks and still having a YBOCS severity of >24, and CGI-Severity of ≧4. Treatment response was defined as an additional 25% reduction in YBOCS score from YBOCS score at the initiation of ondansetron augmentation, an end of treatment (EOT) period YBOCS of ≦24, and CGI-Improvement (CGI-I) of ≦2. Additionally, ondansetron was discontinued after 12 weeks and patients were followed up for another 4 weeks for relapse in YBOCs symptoms. The obsession and compulsion subdomains of the Y-BOCS were also analyzed to determine whether ondansetron would selectively affect one subdomain or the other.

[3] = tested on: mesenteric bed or the nerves in the heart; conditions: animal studies; cited from earlier work
[4] = first 2 weeks of treatment, n=14
[5] = Week 14 (after discontinuation), Non-Responders
[6] = Week 14 (after discontinuation), Responders
[7] = Week 16 (after discontinuation), Non-Responders
[8] = Week 16 (after discontinuation), Responders

Cc1nccn1CC1CCc2c(c3ccccc3n2C)C1=O (stereo not drawn) [ondansetron]
subjects with significant or lasting side effects (such as constipation) ([1]; 12 weeks): None
subjects with significant side effects or worsening of OC symptoms ([1]; at 6 weeks, fourteen subjects): None
patients with decreased appetite [1, 4]: two
patients with headache [1, 4]: two
patients with mild increase in anxiety levels ([1]; lasted only one night, n=14): One
mean pulse rate or mean blood pressure ([1]; n=14): No change
Side effects severity ([1]; throughout the study, n=14): mild to moderate
tolerability of treatment ([2]; 0.25 mg twice daily 2 weeks, then 0.5 mg twice daily 10 weeks): well tolerated
CGI-I Score ([2]; 6 Weeks): 2 (7×) and 3 (2×) and 5 (6×) and 1 (3×) and 4 (3×)
YBOCS % Reduction ([2]; 6 Weeks): 16.00% and 0.00% (3×) and 5.00%
YBOCS Score ([2]; 6 Weeks): 22 and 19 (3×) and 28 and 21 (2×) and 27 and 24 (2×) and 14 and 29 (3×) and 38 and 32 and 17 and 25 and 16 and 26 and 31
Compulsion Subdomain YBOCS % Reduction ([2]; 6 weeks, Non-Responders): −7.14% and 5.00% and −13.33% and −15.38% and 13.33% and 14.29% and 0.00% and 12.50% and −16.67%
Obsession Subdomain YBOCS % Reduction ([2]; 6 weeks, Non-Responders): 16.67% and 0.00% (3×) and 5.00% and −7.69% and −6.67% and 6.25% and 12.50%
Compulsion Subdomain YBOCS % Reduction ([2]; 6 weeks, Responders): 38.46% and 33.33% (2×) and 29.41% and 52.94% and 25.00% and 58.33% and 50.00% and 18.75% and 53.33% and 40.00% and 16.67%
Obsession Subdomain YBOCS % Reduction ([2]; 6 weeks, Responders): 26.67% and 35.29% and 25.00% (3×) and 31.25% and 33.33% and 23.08% and 20.00% and 29.41% and 28.57% and 15.38%
CGI-I Score ([2]; 12 Weeks): 1 (10×) and 5 (8×) and 4 and 2 (2×)
YBOCS % Reduction ([2]; 12 Weeks): 44.00% and 50.00% and 2.50% and −7.14%
YBOCS Score ([2]; 12 Weeks): 21 (2×) and 17 and 28 and 14 (2×) and 16 (3×) and 19 (2×) and 23 and 13 and 25 and 39 and 34 and 30 (2×) and 29 and 15 and 27
average reduction in CGI-I scores for the whole group ([2]; 12 weeks): 46%
Compulsion Subdomain YBOCS % Reduction ([2]; 12 weeks, Non-Responders): 7.14% and 0.00% (2×) and −26.67% and −23.08% and 6.67% and 14.29% and 12.50% and −8.33%
Obsession Subdomain YBOCS % Reduction ([2]; 12 weeks, Non-Responders): 16.67% and 14.29% and 5.00% and 0.00% (2×) and −7.69% and −7.14% and 12.50% (2×)
Compulsion Subdomain YBOCS % Reduction ([2]; 12 weeks, Responders): 38.46% and 46.67% (2×) and 41.18% and 58.82% and 45.00% and 58.33% and 64.29% and 43.75% and 53.33% and 33.33% and 41.67%
Obsession Subdomain YBOCS % Reduction ([2]; 12 weeks, Responders): 46.67% and 52.94% and 43.75% (2×) and 44.44% and 33.33% (3×) and 30.77% and 35.29% and 35.71% and 46.15%
difference between YBOCS score at baseline and after 12 weeks ([2]; Non-responders): 2.9%
Compulsion Subdomain YBOCS Score, Mean ([2]; Week 2, Non-Responders): 14.78
Obsession Subdomain YBOCS Score, Mean ([2]; Week 2, Non-Responders): 14.67
Compulsion Subdomain YBOCS Score ([2]; Week 2, Non-Responders): 15
Obsession Subdomain YBOCS Score ([2]; Week 2, Non-Responders): 12
Compulsion Subdomain YBOCS Score, Mean ([2]; Week 2, Responders): 11.33
Obsession Subdomain YBOCS Score, Mean ([2]; Week 2, Responders): 12.58
Compulsion Subdomain YBOCS Score ([2]; Week 2, Responders): 11 and 12 (5×) and 10 (3×) and 16 and 5 and 14
Obsession Subdomain YBOCS Score ([2]; Week 2, Responders): 12 (4×) and 14 (3×) and 10 and 11 (2×) and 13 and 16
Compulsion Subdomain YBOCS Score, Mean ([2]; Week 4, Non-Responders): 15.00
Obsession Subdomain YBOCS Score, Mean ([2]; Week 4, Non-Responders): 14.44
Compulsion Subdomain YBOCS Score ([2]; Week 4, Non-Responders): 15
Obsession Subdomain YBOCS Score ([2]; Week 4, Non-Responders): 11
Compulsion Subdomain YBOCS Score, Mean ([2]; Week 4, Responders): 10.08
Obsession Subdomain YBOCS Score, Mean ([2]; Week 4, Responders): 11.50
Compulsion Subdomain YBOCS Score ([2]; Week 4, Responders): 9 (3×) and 11 (2×) and 12 and 14 and 5 and 10 (2×) and 13 and 8
Obsession Subdomain YBOCS Score ([2]; Week 4, Responders): 11 (3×) and 13 (4×) and 12 (2×) and 9 and 10 (2×)
Compulsion Subdomain YBOCS Score, Mean ([2]; Week 6, Non-Responders): 15.00
Obsession Subdomain YBOCS Score, Mean ([2]; Week 6, Non-Responders): 14.56
Compulsion Subdomain YBOCS Score ([2]; Week 6, Non-Responders): 15
Obsession Subdomain YBOCS Score ([2]; Week 6, Non-Responders): 10
Compulsion Subdomain YBOCS Score, Mean ([2]; Week 6, Responders): 9.50
Obsession Subdomain YBOCS Score, Mean ([2]; Week 6, Responders): 10.83
Compulsion Subdomain YBOCS Score ([2]; Week 6, Responders): 8 (2×) and 10 (3×) and 12 and 15 and 5 and 7 (2×) and 13 and 9
Obsession Subdomain YBOCS Score ([2]; Week 6, Responders): 11 (4×) and 12 (4×) and 9 (2×) and 10 (2×)
Compulsion Subdomain YBOCS Score, Mean ([2]; Week 8, Non-Responders): 15.22
Obsession Subdomain YBOCS Score, Mean ([2]; Week 8, Non-Responders): 14.44
Compulsion Subdomain YBOCS Score ([2]; Week 8, Non-Responders): 13
Obsession Subdomain YBOCS Score ([2]; Week 8, Non-Responders): 10
Compulsion Subdomain YBOCS Score, Mean ([2]; Week 8, Responders): 8.83
Obsession Subdomain YBOCS Score, Mean ([2]; Week 8, Responders): 10.00
Compulsion Subdomain YBOCS Score ([2]; Week 8, Responders): 8 and 9 (2×) and 10 (3×) and 7 and 15 and 5 (2×) and 12 and 6
Obsession Subdomain YBOCS Score ([2]; Week 8, Responders): 8 (2×) and 10 (5×) and 12 (3×) and 9 (2×)
Compulsion Subdomain YBOCS Score, Mean ([2]; Week 10, Non-Responders): 15.44
Obsession Subdomain YBOCS Score, Mean ([2]; Week 10, Non-Responders): 14.44
Compulsion Subdomain YBOCS Score, Mean ([2]; Week 10, Responders): 8.17
Obsession Subdomain YBOCS Score, Mean ([2]; Week 10, Responders): 9.33
Compulsion Subdomain YBOCS Score ([2]; Week 10, Responders): 8 (3×) and 9 and 10 (2×) and 7 and 11 (2×) and 5 (2×) and 6
Obsession Subdomain YBOCS Score ([2]; Week 10, Responders): 8 (3×) and 10 (4×) and 9 (4×) and 12
Compulsion Subdomain YBOCS Score, Mean ([2]; Week 12, Non-Responders): 15.22
Obsession Subdomain YBOCS Score, Mean ([2]; Week 12, Non-Responders): 14.22
Compulsion Subdomain YBOCS Score, Mean ([2]; Week 12, Responders): 7.92
Obsession Subdomain YBOCS Score, Mean ([2]; Week 12, Responders): 8.83
Compulsion Subdomain YBOCS Score ([2]; Week 12, Responders): 8 (3×) and 10 (2×) and 7 (3×) and 11 and 5 (2×) and 9
Obsession Subdomain YBOCS Score ([2]; Week 12, Responders): 8 (4×) and 9 (4×) and 10 (2×) and 11 and 7
Compulsion Subdomain YBOCS Score, Mean [2, 5]: 15.00
Obsession Subdomain YBOCS Score, Mean [2, 5]: 14.00
Compulsion Subdomain YBOCS Score, Mean [2, 6]: 10.67
Obsession Subdomain YBOCS Score, Mean [2, 6]: 11.25
Compulsion Subdomain YBOCS Score [2, 6]: 8 (2×) and 13 (3×) and 11 (3×) and 6 and 12 (2×) and 10
Obsession Subdomain YBOCS Score [2, 6]: 9 (2×) and 14 (2×) and 12 (3×) and 13 and 11 (2×) and 8 and 10
Compulsion Subdomain YBOCS Score, Mean [2, 7]: 14.78
Obsession Subdomain YBOCS Score, Mean [2, 7]: 13.67
Compulsion Subdomain YBOCS Score, Mean [2, 8]: 11.50
Obsession Subdomain YBOCS Score, Mean [2, 8]: 11.67
Compulsion Subdomain YBOCS Score [2, 8]: 8 (2×) and 13 (4×) and 14 and 12 (2×) and 15 and 6 and 11
Obsession Subdomain YBOCS Score [2, 8]: 9 (2×) and 15 and 13 and 12 (3×) and 14 (2×) and 8 and 11 (2×)
overall ondansetron effects for obsessions versus compulsions ([2]; YBOCS subdomains): comparable
reduction in CGI-I from baseline ([2]; responders, after 12 weeks): 77%
reduction in YBOCS from baseline ([2]; responders, after 12 weeks): 44%
effect on the mesenteric bed or the nerves in the heart [3]: did not appear to have effect
